Columns and labels:
integrase = integrase (Human immunodeficiency virus type 1 group M subtype B, UniProt P04585); assay: Integrase inhibitor in vitro; type: biochemical
integrase of HIV-1 = target: T1, integrase of HIV-1 (Human immunodeficiency virus type 1 group M subtype B, UniProt P04585); assay: Nuclear import test on the integrase of HIV-1 in permeabilized HeLa cells; type: cell-based; conditions: 30 minutes at 30° C., FIGS. 5 and 6
T1 construct: incubated for 30 minutes at 30° C. with integrase coupled with Cyanine 3 fluorochrome
Description: FIGS. 5 and 6 show the quantification of the fluorescence intensity measured in a nuclear import test on the integrase of HIV-1 in permeabilized HeLa cells in the presence or absence of cytoplasmic extracts.
The import tests in FIG. 5 were carried out as described in Depienne et al. 2001. HeLa cells were permeabilized with Digitonin, then incubated for 30 minutes at 30° C. with integrase coupled with Cyanine 3 fluorochrome in the presence of energy, in the absence of cytosolic extracts and in the presence or absence of increasing concentrations of different molecules as indicated. The cells were then fixed, analyzed by epifluorescence microscopy and acquisitions were carried out with a CCD camera.
For each condition, the fluorescence intensity per surface unit was quantified in 150 to 300 nuclei originating from 3 independent experiments.
The data of FIGS. 6 and 7 were obtained as follows: HeLa cells were permeabilized with digitonin, then incubated for 30 minutes at 30° C. with integrase conjugated to Cyanine 3 fluorochrome and with bovine serum albumin (BSA) conjugated to the standard nuclear localization signal of the T antigen of the SV40 virus (NLS) and with fluorescein (BSA-NLS), in the presence of cytosolic extracts and energy and in the presence or in the absence of increasing concentrations of different molecules as indicated. […]

viral DNA = assay: Quantification of total viral DNA synthesized and of DNA integrated into the host cell genome after infection (Butler et al.); type: cell-based; conditions: FIG. 1
Description: FIG. 1, the quantification of the total viral DNA synthesized 6 hours after infection and the quantity of viral DNA integrated into the genome 8 hours after infection, and
Study of the Quantification of the Total Viral DNA Synthesized and of the DNA Integrated into the Genome of a Host Cell after Infection
The operation described by Butler et al. in Nat. Med. 2001 May; 7 (5): 631-4 is carried out.

virus = conditions: integrase mutations at V165 and V249, and at C280 for a second virus

SMILES: COc1cc(/C=C/c2ccc3ccc(C(=O)[O-])c(O)c3n2)cc(O)c1O.[Na+] [FZ41, 8-hydroxy-2-[2-[(3,4-dihydroxy,5-methoxyphenyl)ethenyl]]7-quinoline carboxylic acid]
- Integrase inhibitor in vitro (integrase): YES
- nuclear import of integrase (fluorescence in the nuclei of permeabilized cells) (integrase of HIV-1): considerably reduce
- total viral DNA synthesized (viral DNA; 6 hours after infection): strong reduction
- viral DNA integrated into the genome (viral DNA; 8 hours after infection): strong reduction
- emergence of resistant viruses (virus): emergence of viruses resistant to the drug
